Experiments:
Test in all cases: biochemical
[1] = target: T1, panel of 374 wild-type kinases (Homo sapiens, UniProt Q32MK0); details: read-out: % Enzyme Activity (relative to DMSO controls), MYLK3
T1 construct: purchased Reaction Biology Corporation
T1 sequence (Q32MK0 1-819): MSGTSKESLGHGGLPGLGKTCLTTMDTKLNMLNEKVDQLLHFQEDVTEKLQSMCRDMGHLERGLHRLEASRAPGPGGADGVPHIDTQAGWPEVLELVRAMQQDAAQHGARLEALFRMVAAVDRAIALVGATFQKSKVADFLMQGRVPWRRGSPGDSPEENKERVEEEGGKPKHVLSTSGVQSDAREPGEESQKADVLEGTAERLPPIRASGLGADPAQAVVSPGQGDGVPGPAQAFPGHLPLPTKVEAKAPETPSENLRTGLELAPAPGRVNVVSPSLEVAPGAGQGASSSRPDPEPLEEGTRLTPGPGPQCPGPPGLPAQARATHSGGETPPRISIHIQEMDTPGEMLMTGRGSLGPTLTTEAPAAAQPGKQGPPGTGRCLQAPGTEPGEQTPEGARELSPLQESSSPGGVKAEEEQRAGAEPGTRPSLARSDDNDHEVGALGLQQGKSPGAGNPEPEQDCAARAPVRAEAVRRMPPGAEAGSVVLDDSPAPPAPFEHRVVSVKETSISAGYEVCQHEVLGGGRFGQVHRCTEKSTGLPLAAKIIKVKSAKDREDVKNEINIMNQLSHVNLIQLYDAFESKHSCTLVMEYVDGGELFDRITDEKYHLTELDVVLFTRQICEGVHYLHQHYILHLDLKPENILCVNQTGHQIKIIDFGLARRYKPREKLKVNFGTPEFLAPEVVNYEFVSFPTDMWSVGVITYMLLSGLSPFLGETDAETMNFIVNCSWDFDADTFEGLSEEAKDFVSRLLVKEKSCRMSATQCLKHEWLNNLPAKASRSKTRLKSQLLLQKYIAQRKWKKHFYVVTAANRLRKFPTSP

[2] = target: T2, panel of 374 wild-type kinases (Homo sapiens, UniProt P54756); details: read-out: % Enzyme Activity (relative to DMSO controls), EPHA5
T2 construct: purchased Reaction Biology Corporation
T2 sequence (P54756 25-1037): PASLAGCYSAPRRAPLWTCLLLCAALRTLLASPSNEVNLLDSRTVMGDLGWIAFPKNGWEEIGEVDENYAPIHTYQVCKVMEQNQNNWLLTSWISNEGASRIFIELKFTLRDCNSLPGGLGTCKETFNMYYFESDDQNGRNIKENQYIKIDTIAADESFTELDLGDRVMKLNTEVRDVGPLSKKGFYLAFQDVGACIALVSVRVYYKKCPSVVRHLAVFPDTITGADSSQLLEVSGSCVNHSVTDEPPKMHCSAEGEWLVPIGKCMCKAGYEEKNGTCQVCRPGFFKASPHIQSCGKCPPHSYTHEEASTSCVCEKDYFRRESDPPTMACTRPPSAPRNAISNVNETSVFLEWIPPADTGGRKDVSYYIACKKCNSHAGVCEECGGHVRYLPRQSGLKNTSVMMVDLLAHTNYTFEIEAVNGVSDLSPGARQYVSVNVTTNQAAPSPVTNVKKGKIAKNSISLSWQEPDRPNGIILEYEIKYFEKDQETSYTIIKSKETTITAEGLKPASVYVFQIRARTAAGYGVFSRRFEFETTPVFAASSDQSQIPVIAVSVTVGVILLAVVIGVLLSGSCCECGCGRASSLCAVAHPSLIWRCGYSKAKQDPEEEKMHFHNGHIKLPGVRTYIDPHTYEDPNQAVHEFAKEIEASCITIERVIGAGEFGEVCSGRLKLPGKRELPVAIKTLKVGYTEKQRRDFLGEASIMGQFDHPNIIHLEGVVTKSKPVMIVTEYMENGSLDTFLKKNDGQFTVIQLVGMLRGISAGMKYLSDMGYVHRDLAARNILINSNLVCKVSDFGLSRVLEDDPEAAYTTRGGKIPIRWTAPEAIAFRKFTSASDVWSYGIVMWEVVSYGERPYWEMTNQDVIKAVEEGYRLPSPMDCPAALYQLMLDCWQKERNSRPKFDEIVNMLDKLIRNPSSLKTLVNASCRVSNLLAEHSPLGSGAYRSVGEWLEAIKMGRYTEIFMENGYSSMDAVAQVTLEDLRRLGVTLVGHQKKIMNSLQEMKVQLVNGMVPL

[3] = target: T3, panel of 374 wild-type kinases (Homo sapiens, UniProt Q9P286); details: read-out: % Enzyme Activity (relative to DMSO controls), kinase PAK5
T3 construct: purchased Reaction Biology Corporation
T3 sequence (Q9P286 whole entry): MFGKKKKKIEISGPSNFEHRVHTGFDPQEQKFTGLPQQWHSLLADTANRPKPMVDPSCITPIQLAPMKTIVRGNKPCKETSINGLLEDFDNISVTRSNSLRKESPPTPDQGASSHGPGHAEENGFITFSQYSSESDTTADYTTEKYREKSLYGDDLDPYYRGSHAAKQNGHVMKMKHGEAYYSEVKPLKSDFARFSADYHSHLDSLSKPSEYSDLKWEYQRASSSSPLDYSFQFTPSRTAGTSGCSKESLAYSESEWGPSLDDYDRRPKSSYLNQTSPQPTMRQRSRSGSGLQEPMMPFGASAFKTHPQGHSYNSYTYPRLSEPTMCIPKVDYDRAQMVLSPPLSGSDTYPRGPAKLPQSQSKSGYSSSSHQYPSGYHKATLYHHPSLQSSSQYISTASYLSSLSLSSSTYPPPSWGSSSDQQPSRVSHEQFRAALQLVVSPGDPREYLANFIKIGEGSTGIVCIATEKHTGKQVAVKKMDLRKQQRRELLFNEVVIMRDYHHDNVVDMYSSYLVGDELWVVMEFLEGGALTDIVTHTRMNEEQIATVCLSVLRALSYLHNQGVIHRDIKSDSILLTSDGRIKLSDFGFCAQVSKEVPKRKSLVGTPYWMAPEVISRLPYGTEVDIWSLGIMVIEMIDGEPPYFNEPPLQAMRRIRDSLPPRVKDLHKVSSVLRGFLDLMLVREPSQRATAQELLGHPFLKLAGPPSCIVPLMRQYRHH

[4] = target: T4, panel of 374 wild-type kinases (Homo sapiens, UniProt Q9UKI8); details: read-out: % Enzyme Activity (relative to DMSO controls), kinase TLK1
T4 construct: purchased Reaction Biology Corporation
T4 sequence (Q9UKI8 1-766): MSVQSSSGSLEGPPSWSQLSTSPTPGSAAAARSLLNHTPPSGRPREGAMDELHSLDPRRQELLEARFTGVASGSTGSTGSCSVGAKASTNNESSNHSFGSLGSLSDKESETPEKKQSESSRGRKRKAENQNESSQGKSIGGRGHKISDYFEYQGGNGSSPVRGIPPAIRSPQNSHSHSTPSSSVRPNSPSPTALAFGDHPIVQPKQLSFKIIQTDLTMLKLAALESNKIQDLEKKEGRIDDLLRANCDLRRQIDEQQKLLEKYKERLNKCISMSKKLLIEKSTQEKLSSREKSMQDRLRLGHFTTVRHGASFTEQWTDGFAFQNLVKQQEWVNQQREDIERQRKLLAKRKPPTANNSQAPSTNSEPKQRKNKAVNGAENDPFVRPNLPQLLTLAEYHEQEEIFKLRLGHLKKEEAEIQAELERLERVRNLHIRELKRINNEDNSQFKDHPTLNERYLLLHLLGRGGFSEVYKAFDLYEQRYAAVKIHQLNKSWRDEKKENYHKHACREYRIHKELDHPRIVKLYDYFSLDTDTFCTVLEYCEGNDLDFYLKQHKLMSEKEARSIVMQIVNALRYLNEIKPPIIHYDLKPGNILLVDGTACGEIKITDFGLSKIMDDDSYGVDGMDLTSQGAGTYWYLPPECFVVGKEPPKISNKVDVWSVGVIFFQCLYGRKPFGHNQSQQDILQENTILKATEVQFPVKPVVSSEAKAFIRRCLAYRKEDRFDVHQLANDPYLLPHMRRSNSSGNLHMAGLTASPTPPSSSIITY

[5] = target: T5, panel of 374 wild-type kinases (Homo sapiens, UniProt P53667); details: read-out: % Enzyme Activity (relative to DMSO controls), LIMK1
T5 construct: purchased Reaction Biology Corporation
T5 sequence (P53667 whole entry): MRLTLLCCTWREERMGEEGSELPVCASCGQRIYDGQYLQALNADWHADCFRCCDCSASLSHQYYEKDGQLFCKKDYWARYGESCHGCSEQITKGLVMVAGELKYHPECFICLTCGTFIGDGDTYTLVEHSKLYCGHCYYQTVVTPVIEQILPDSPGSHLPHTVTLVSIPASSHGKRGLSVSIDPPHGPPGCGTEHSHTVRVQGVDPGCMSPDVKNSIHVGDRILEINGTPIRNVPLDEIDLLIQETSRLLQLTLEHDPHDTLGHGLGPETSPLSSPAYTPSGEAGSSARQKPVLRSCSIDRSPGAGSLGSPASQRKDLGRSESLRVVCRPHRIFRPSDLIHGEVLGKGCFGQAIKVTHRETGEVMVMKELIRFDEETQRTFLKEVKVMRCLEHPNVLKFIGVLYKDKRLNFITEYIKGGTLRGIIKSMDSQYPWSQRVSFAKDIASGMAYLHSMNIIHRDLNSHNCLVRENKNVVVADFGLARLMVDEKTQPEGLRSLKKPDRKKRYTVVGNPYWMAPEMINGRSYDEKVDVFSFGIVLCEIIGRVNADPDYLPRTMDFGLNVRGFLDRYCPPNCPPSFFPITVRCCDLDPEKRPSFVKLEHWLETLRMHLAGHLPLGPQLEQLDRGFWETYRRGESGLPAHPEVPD

[6] = target: T6, panel of 374 wild-type kinases (Homo sapiens, UniProt O75914); details: read-out: % Enzyme Activity (relative to DMSO controls), kinase PAK3
T6 construct: purchased Reaction Biology Corporation
T6 sequence (O75914 whole entry): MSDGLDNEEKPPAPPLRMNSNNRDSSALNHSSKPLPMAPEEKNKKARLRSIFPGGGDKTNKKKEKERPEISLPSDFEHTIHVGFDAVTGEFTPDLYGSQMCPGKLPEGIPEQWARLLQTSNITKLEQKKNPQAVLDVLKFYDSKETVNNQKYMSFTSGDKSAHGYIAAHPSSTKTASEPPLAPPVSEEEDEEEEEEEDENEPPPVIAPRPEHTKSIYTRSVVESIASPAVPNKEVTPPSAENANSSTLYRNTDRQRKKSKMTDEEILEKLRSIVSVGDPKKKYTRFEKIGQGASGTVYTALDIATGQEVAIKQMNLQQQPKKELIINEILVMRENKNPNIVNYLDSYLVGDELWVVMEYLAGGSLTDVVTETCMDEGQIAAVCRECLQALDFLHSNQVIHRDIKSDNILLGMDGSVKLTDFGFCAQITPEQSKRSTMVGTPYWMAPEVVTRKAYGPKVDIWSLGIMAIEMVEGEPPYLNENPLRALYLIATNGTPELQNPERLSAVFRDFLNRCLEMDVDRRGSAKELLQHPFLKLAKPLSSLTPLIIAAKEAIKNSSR

[7] = target: T7, panel of 374 wild-type kinases (Homo sapiens, UniProt Q15835); details: read-out: % Enzyme Activity (relative to DMSO controls), GRK1
T7 construct: purchased Reaction Biology Corporation
T7 sequence (Q15835 1-563): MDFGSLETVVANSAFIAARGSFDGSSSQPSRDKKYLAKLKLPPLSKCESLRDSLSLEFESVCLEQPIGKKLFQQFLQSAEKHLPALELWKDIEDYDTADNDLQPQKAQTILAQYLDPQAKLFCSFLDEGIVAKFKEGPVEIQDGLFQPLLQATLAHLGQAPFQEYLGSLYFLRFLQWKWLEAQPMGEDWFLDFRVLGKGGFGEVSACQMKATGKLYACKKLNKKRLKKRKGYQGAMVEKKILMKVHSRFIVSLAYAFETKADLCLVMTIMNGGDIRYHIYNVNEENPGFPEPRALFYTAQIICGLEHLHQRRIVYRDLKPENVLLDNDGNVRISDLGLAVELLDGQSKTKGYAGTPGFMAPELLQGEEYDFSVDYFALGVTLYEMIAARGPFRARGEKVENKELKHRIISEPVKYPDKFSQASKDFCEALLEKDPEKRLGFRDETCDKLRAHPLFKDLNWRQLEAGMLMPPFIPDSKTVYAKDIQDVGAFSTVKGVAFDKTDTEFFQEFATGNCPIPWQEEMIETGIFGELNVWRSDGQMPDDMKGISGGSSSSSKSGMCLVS

[8] = target: T8, panel of 374 wild-type kinases (Homo sapiens, UniProt Q02779); details: read-out: % Enzyme Activity (relative to DMSO controls), MLK2/MAP3K10
T8 construct: purchased Reaction Biology Corporation
T8 sequence (Q02779 whole entry): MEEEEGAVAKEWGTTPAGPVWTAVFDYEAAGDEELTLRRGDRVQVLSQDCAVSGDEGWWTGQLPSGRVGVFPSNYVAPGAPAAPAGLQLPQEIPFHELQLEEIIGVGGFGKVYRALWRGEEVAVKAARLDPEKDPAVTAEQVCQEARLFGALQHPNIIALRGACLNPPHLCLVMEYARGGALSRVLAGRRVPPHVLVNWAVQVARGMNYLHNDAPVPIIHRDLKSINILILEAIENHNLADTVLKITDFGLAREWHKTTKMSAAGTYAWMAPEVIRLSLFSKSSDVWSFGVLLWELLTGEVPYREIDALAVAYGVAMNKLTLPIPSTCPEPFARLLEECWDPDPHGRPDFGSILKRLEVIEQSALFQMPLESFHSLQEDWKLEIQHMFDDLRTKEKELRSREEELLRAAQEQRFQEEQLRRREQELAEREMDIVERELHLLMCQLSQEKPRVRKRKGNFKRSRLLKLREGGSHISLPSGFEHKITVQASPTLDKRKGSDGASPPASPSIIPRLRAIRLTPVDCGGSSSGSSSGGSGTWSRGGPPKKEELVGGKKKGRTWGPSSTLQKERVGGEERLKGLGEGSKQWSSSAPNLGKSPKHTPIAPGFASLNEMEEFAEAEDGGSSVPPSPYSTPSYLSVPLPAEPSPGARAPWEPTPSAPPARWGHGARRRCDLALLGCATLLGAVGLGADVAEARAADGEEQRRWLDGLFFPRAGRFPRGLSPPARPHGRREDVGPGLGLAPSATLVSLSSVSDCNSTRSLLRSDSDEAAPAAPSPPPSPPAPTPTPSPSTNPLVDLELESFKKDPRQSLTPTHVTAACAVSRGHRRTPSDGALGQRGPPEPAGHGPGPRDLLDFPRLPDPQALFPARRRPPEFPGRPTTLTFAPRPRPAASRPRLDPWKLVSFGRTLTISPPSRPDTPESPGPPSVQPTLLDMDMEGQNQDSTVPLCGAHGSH

SMILES | remaining activity at 5 µM [1] [%] | remaining activity at 5 µM [2] [%] | remaining activity at 5 µM [3] [%] | remaining activity at 5 µM [4] [%] | remaining activity at 5 µM [5] [%] | remaining activity at 5 µM [6] [%] | remaining activity at 5 µM [7] [%] | remaining activity at 5 µM [8] [%] | remaining activity at 10 µM ([1]; 10 uM) [%] | remaining activity at 10 µM ([2]; 10 uM) [%] | remaining activity at 10 µM ([3]; 10 uM) [%] | remaining activity at 10 µM ([4]; 10 uM) [%] | remaining activity at 10 µM ([5]; 10 uM) [%] | remaining activity at 10 µM ([6]; 10 uM) [%] | remaining activity at 10 µM ([7]; 10 uM) [%] | remaining activity at 10 µM ([8]; 10 uM) [%]
O=C(Nc1cnn(-c2csc(C(=O)NC3COC3)c2)c1)Nc1ccccc1Cl [Compound 17, 4-(4-(3-(2-chlorophenyl)ureido)-1H-pyrazol-1-yl)-N-(oxetan-3-yl)thiophene-2-carboxamide] | 95.1 | 96.9 | 92.1 | 105 | 96.2 | 97.4 | 91.9 | 98.5 |  |  |  |  |  |  |  | 
Cc1sc(C(=O)NC2COC2)cc1-n1cc(NC(=O)Nc2c(F)cccc2Cl)cn1 [Compound 27, 4-(4-(3-(2-chloro-6-fluorophenyl)ureido)-1H-pyrazol-1-yl)-5-methyl-N-(oxetan-3-yl)thiophene-2-carboxamide] |  |  |  |  |  |  |  |  | 112 | 106 | 103 | 105 | 105 | 114 | 113 | 90.8
O=C(Nc1cnn(-c2csc(C(=O)NC3COC3)c2)c1)Nc1c(F)cccc1Cl [Compound 25, 4-(4-(3-(2-chloro-6-fluorophenyl)ureido)-1H-pyrazol-1-yl)-N-(oxetan-3-yl)thiophene-2-carboxamide] | 102 | 95 | 92.9 | 53.4 | 104 | 64.2 | 92.9 | 94.3 |  |  |  |  |  |  |  | 

Source: patent US20240246942A1, “KINASE INHIBITORS FOR THE TREATMENT OF NEURODEGENERATIVE DISEASES” (priority 2020, published 2024)
